Results published in patent US20250318524A1, “ANTIMICROBIAL COATING COMPOSITION AND METHOD OF USE THEREOF” (priority 2024, published 2025).

Assay: Selection of antimicrobial agents: solubility in aqueous solution, stability, compatibility with the coating composition

| Compound | solubility in water |
| --- | --- |
| N=C(NCCCCCCNC(=N)NC(=N)Nc1ccc(Cl)cc1)NC(=N)Nc1ccc(Cl)cc1.O=C(O)[C@H](O)[C@@H](O)[C@H](O)[C@H](O)CO.O=C(O)[C@H](O)[C@@H](O)[C@H](O)[C@H](O)CO [Chlorhexidine gluconate, chlorhexidine gluconate] | good water solubility |
| polyhexamethylene biguanide [PHMB] | good water solubility |
